# Values joined by “and” are separate entries in the source; they are usually repeats but may differ in a detail not shown here. Equal values may be shown once. Marks after values point to notes of the source that are not given here.
# Tests used:
# Format in all cases: in vivo, rat
# [1] = system: TNF-α; assay: CIA rats, serum TNF-α ELISA; details: for TNF-α: serum
# Experimental: The presence of catabolic cytokines IL-6/TNF-α was measured using the Rat IL-6/TNF-α Quantikine ELISA kit from RandD Systems as follows: undiluted serum was added to a microplate coated with polyclonal IL-6/TNF-α antibody and allowed to bind for 2 hours at room temperature. The microplate was washed thoroughly to remove unbound serum, and then a polyclonal enzyme-conjugated IL-6/TNF-α antibody was added and allowed to bind for 2 hours at room temperature. Washing was repeated, enzyme substrate was added, and the plate was developed for 30 minutes at room temperature. After the addition of stop solution, the absorbance was read at 450 nm and the concentration of IL-6/TNF-α calculated based on the absorbance readings of an IL-6/TNF-α standard curve.
# [2] = system: CIA rats; assay: CIA rats, ankle diameter; set-up: Ankle diameter (Mean): unit not given here; details: for % Inhibition Ankle diameter (AUC): vs CIA + vehicle
# [3] = system: CIA rats; assay: Collagen-induced arthritis (CIA) rats, arthritis severity index; details: for % Inhibition Arthritis index (AUC): vs CIA + vehicle
# Experimental: Male Sprague Dawley rats (7-8 weeks old, n=40) were purchased from Charles River Laboratories Inc. (Wilmington, Mass., USA) and acclimated upon arrival for two weeks before being assigned randomly to their respective treatment groups: G1=Normal control (−) (n=10/group), G2=collagen-induced arthritis (CIA)+Vehicle (0.5% Carboxy Methylcellulose) (n=10/group), G3=CIA+Methotrexate (+) (75 μg/kg) (n=10/group), and G4=CIA+AMK (+) (200 mg/kg) (n=10/group). Treatment was initiated two weeks before model induction and lasted for an additional three weeks thereafter. Collagen type-II (Lot #845) from bovine nasal septum and Incomplete Freund's adjuvant (IFA) (Lot #SLBR0642v) were purchased from Elastin Products Company (Owensville, Mich., USA) and Sigma (St. Louise, Mo., USA), respectively. All materials were kept at suitable temperatures as recommended by the manufacturer. At the time of preparation, 60 mg of collagen was weighed and added to pre-chilled 15 mL 0.1 M acetic acid in a 60 mL-sized flask with a magnetic stirrer to yield 4 mg/mL concentration (Brand, et al., 2003; Rosloniec et al., 2001).
# The mixture was dissolved by gently stirring overnight at 4° C. The next morning, the dissolved collagen was emulsified with equal volume of IFA (15 mL) to achieve a final concentration of 2 mg/mL collagen. Rats sedated with isoflurane were then primed intradermally with 400 μL of the emulsified collagen at the base of their tail at two sites using a 1 mL syringe fitted with a 26 G needle. The dissolved mixture was kept in an ice bucket and stirred between groups at the time of injection to preserve uniform consistency. On the seventh day, rats were inoculated with a booster dose of 2 mg/mL type II collagen emulsified with equal volume of incomplete adjuvant at 100 μL/rat/site.
# Clinical findings such as arthritis severity index, paw thickness, ankle diameter (using Digital Absolute, Model #PK-0505CPX, Mitutoyo Corporation, Kawasaki, Japan), and pain sensitivity (using Randall Salitto, IITC Life Science Inc., Woodland Hills, Calif., USA) were monitored during the course of study. Urine was collected from overnight fasted rats using metabolic cages after three weeks of treatment post-model induction. At Necropsy, serum from the cardiac and synovial lavage (100 μL of saline was injected into the articular cavity and aspirated back to the syringe) for biomarkers and ankle joint for histopathology were collected from each animal.
# Linear trapezoid rule was used to calculate area under the curve (AUC) for days 9-21. % Inhibition={(Mean value of treatment-mean value of CIA+)/(Mean value of control-mean value of CIA)}*100.
# Male Sprague Dawley rats (7-8 weeks old, n=40) were purchased from Charles River Laboratories Inc. (Wilmington, Mass., USA) and acclimated upon arrival for two weeks before being assigned randomly to their respective treatment groups: G1=Normal control (−) (n=10/group), G2=collagen-induced arthritis (CIA)+Vehicle (0.5% Carboxy Methylcellulose) (n=10/group), G3=CIA+Methotrexate (+) (0.5 mg/kg) (n=10/group), and G4=CIA+AP (+) (200 mg/kg) (n=10/group). Treatment was initiated two weeks before model induction and lasted for an additional three weeks thereafter. Collagen type-II (Lot #845) from bovine nasal septum and Incomplete Freund's adjuvant (IFA) (Lot #SLBR0642v) were purchased from Elastin Products Company (Owensville, Mich., USA) and Sigma (St. Louise, Mo., USA), respectively. All materials were kept at suitable temperatures as recommended by the manufacturer. At the time of preparation, 60 mg of collagen was weighed and added to pre-chilled 15 mL 0.1 M acetic acid in a 60 mL-sized flask with a magnetic stirrer to yield 4 mg/mL concentration (Brand, et al., 2003; Rosloniec et al., 2001). The mixture was dissolved by gently stirring overnight at 4° C. The next morning, the dissolved collagen was emulsified with equal volume of IFA (15 mL) to achieve a final concentration of 2 mg/mL collagen.
# [4] = system: uCTX-II; assay: CIA rats, urinary CTX-II ELISA normalized to creatinine
# Experimental: The presence of the cartilage degradation biomarker uCTX-II was measured using the Rat CTX-II ELISA kit from Mybiosource (product #: MBS2880519) as follows: diluted urine was added to a microplate coated with CTX-II antibody and allowed to bind for 2 h at 37° C. […] The microplate was washed thoroughly to remove unbound urine and antibody before an enzyme-conjugated avidin antibody was added to bind to the biotin-conjugated antibody for specific detection. The avidin antibody was allowed to bind for 1 h at 37° C. Washing was repeated, enzyme substrate was added, and the plate was developed for 30 min at 37° C. After the addition of stop solution, the absorbance was read at 450 nm, multiplied by dilution factor, and the concentration of CTX-II calculated based on the absorbance readings of a CTX-II standard curve. CTX-II amount was normalized to the amount of Creatinine in the urine using the Creatinine Parameter Assay Kit from R and D Systems (product #: […] Absorbance was read at 492 nm and Creatinine amount in urine was calculated based on the absorbance readings of a Creatinine standard curve.
# [5] = system: IL-1β; assay: CIA rats, serum IL-1β ELISA; details: AMK CIA study; MTX 75 μg/kg, AMK 200 mg/kg oral
# Experimental: The presence of catabolic cytokines IL-1β, TNF-α, or IL-6 was measured using Rat IL-1, TNF-α, and IL-6 Quantikine ELISA kit from R and D Systems (product #: RLB00 for IL-1β, RTA00 for TNF-α, and R6000B for IL-6) as follows: diluted serum was added to a microplate coated with polyclonal IL-1, TNF-α, or IL-6 antibody and allowed to bind for 2 h at room temperature. The microplate was washed thoroughly to remove unbound serum and then a polyclonal enzyme-conjugated IL-1β, TNF-α, or IL-6 antibody was added and allowed to bind for 2 h at room temperature. Washing was repeated, enzyme substrate was added, and the plate was developed for 30 min at room temperature. After the addition of stop solution, the absorbance was read at 450 nm, multiplied by dilution factor, and the concentration of IL-1β/TNF-α/IL-6 calculated based on the absorbance readings of an IL-1β/TNF-α/TL-6 standard curve.
# [6] = system: MMP-13; assay: CIA rats, serum MMP-13 ELISA; details: for MMP-13: serum
# Experimental: The presence of cartilage degradative enzyme MMP-13 was measured using the Rat Matrix Metallo-Proteinase 13 (MMP-13) ELISA kit from Mybiosource (product #: MBS702112 for MMP-13) as follows: serum was added to a microplate coated with MMP-13 antibody and allowed to bind for 2 h at 37° C. The samples were removed and then a biotin-conjugated MMP-13 antibody was added and allowed to bind for 1 h at 37° C. The microplate was thoroughly washed, and an avidin-conjugated Horse Radish Peroxidase was added and allowed to bind for 1 h at 37° C. Enzyme substrate was then added, and the plate was developed for 30 min at 37° C. After the addition of stop solution, the absorbance was read at 450 nm, multiplied by dilution factor, and the concentration of MMP-13 calculated based on the absorbance readings of an MMP-13 standard curve
# The presence of cartilage degradative enzyme MMP-13 was measured using the Rat Matrix Metalloproteinase 13 (MMP-13) ELISA kit from Mybiosource (product #: MBS702112) as follows: undiluted serum was added to a microplate coated with MMP-13 antibody and allowed to bind for 2 hours at 37° C. The samples were removed, and then a biotin-conjugated MMP-13 antibody was added and allowed to bind for 1 hour at 37° C. The microplate was thoroughly washed, and an avidin-conjugated Horse Radish Peroxidase was added and allowed to bind for 1 hour at 37° C. Enzyme substrate was then added, and the plate was developed for 30 minutes at 37° C. After the addition of stop solution, the absorbance was read at 450 nm and the concentration of MMP-13 calculated based on the absorbance readings of an MMP-13 standard curve.
# [7] = system: CIA rats; assay: CIA rats, ankle joint histopathology (modified Mankin)
# Experimental: For histopathological examination, the ankle joints were kept in 10% formalin for 72 h. The fixed specimens were then decalcified with Calci-Clear Rapid for one and a half days and embedded in paraffin. Standardized 5 μm serial sections were obtained at the medial and lateral section in the sagittal plane of the joint and were stained with hematoxylin and eosin (HE) and Safranin O-fast green to enable evaluation of proteoglycan content. A modified Mankin system (Mankin et al., 1971) was used to score structural and cellular alterations of joint tissues resulting from disease progression and/or treatment efficacy. The histological analysis was conducted at Nationwide Histology and slides were examined by a certified pathologist.
# At necropsy, the ankle joint was carefully dissected out, fixed in 10% buffered formalin and sent to Nationwide Histology (Veradale, Wash., USA) for further histopathology analysis. The fixed specimens were then decalcified with Calci-Clear Rapid for one and a half days and embedded in paraffin. Standardized 5 m serial sections were obtained from each rat and stained with hematoxylin and eosin (HE) and Safranin O-fast green to enable evaluation of proteoglycan content. A modified Mankin system (Mankin et al., 1981) was used to score structural and cellular alterations of articular components as indications of disease progression and/or treatment efficacy. The histological analysis was conducted by a certified Pathologist at Nationwide Histology.
# [8] = system: PIIANP; assay: CIA rats, PIIANP ELISA (synovial fluid or serum)
# Experimental: The presence of cartilage regeneration/rebuilding biomarker PIIANP was measured using the Rat Procollagen Type IIA N-Prop (PIIANP) ELISA kit from Mybiosource (product #: MBS9399069) as follows: synovial fluid was added to a microplate coated with PIIANP antibody as well as an HRP-conjugated PIIANP antibody and allowed to bind for one hour at 37° C. The microplate was thoroughly washed, and a Chromagen solution was added and allowed to bind for 15 minutes at 37° C. After the addition of stop solution, the absorbance was read at 450 nm and the concentration of PIIANP calculated based on the absorbance readings of a PIIANP standard curve.
# The level of cartilage regeneration biomarker PIIANP was measured using the Rat Procollagen Type IIA N-Prop (PIIANP) ELISA kit from Mybiosource (product #: MBS9399069) as follows: undiluted serum was added to a microplate coated with PIIANP antibody as well as an HRP-conjugated PIIANP antibody and allowed to bind for one hour at 37° C. The microplate was thoroughly washed, and a Chromagen solution was added and allowed to bind for 15 minutes at 37° C. After the addition of stop solution, the absorbance was read at 450 nm and the concentration of PIIANP calculated based on the absorbance readings of a PIIANP standard curve.
# [9] = system: type II collagen synthesis and degradation; assay: CIA rats, Z score of type II collagen synthesis and degradation (PIIANP, uCTX-II)
# Description: Previously, Garnero et al measured these markers [Type II collagen synthesis and degradation: N-propeptide of type IIA procollagen (PIIANP) and urine CTX-II, respectively] and correlated them to findings on radiographs and arthroscopy of OA patients. […] They explained their observation that these patients have an uncoupling effect between collagen synthesis and degradation, which is leaning more towards the progression of OA.
# Adapting their method, we calculated the Z-factor for cartilage synthesis and degradation using data from PIIANP and uCTX-II, respectively. For an intervention to drive the OA catabolic progression towards anabolic or regenerative activities, the Z-score values have to come close to zero.
# [10] = AMK CIA study, MTX 75 μg/kg, AMK 200 mg/kg oral
# [11] = AP CIA study, Methotrexate 0.5 mg/kg, AP 200 mg/kg oral
# [12] = AP study, MTX (0.5 mg/mL), AP (200 mg/kg) oral 3 weeks
# [13] = AMK CIA study, MTX 75 μg/kg, AMK 200 mg/kg oral, AUC days 9-21
# [14] = AMK study, MTX 75 μg/kg, AMK 200 mg/kg
# [15] = AP study, MTX 0.5 mg/kg, AP 200 mg/kg
# [16] = AMK study, MTX (75 μg/mL), AMK (200 mg/kg)
# [17] = AP study, MTX (0.5 mg/mL), AP (200 mg/kg)
# [18] = score 0-6, AMK study, MTX (75 μg/mL), AMK (200 mg/kg)
# [19] = score, AP study, MTX (0.5 mg/mL), AP (200 mg/kg)
structure (smiles),measurement,setting,value
CN(Cc1cnc2nc(N)nc(N)c2n1)c1ccc(C(=O)N[C@@H](CCC(=O)O)C(=O)O)cc1 [Methotrexate],serum TNF-α inhibition compared to diseased control,[1]; [10],86.2%
same,serum TNF-α level vs vehicle-treated CIA,[1]; [11],significantly reduced
same,TNF-α,"[1]; AMK study, AMK (200 mg/kg)",0.37 ± 1.12 pg/mL
same,TNF-α,[1]; [12],10.2 ± 0.37 pg/mL
same,percent reduction in ankle diameter (AUC) vs vehicle-treated CIA,[2]; [13],65.94% and 65.9%
same,AUC(d9-d21) (Mean ± SD) Ankle diameter,[2]; [14],39.11 ± 0.21
same,percent reduction in ankle diameter (AUC) vs vehicle-treated CIA,[2]; [11],93.6%
same,AUC(d9-d21) (Mean ± SD) Ankle diameter,[2]; [15],30.94 ± 0.11
same,Ankle diameter (Mean),"[2]; Boost, MTX 75 μg/kg, AMK 200 mg/kg",6.08
same,Ankle diameter (Mean),"[2]; Day 9, MTX 75 μg/kg, AMK 200 mg/kg",6.12
same,Ankle diameter (Mean),"[2]; Day 10, MTX 75 μg/kg, AMK 200 mg/kg",6.17
same,Ankle diameter (Mean),"[2]; Day 11, MTX 75 μg/kg, AMK 200 mg/kg",6.33
same,Ankle diameter (Mean),"[2]; Day 12, MTX 75 μg/kg, AMK 200 mg/kg",6.50*
same,Ankle diameter (Mean),"[2]; Day 13, MTX 75 μg/kg, AMK 200 mg/kg",6.67*
same,Ankle diameter (Mean),"[2]; Day 14, MTX 75 μg/kg, AMK 200 mg/kg",6.85*
same,Ankle diameter (Mean),"[2]; Day 15, MTX 75 μg/kg, AMK 200 mg/kg",7.06*
same,Ankle diameter (Mean),"[2]; Day 16, MTX 75 μg/kg, AMK 200 mg/kg",7.28*
same,Ankle diameter (Mean),"[2]; Priming, AP study, MTX 0.5 mg/kg, AP 200 mg/kg",0.10
same,Ankle diameter (Mean),"[2]; Priming, MTX 75 μg/kg, AMK 200 mg/kg",6.03
same,Ankle diameter (Mean),"[2]; day 17, MTX 75 μg/kg, AMK 200 mg/kg",7.32*
same,Ankle diameter (Mean),"[2]; day 19, MTX 75 μg/kg, AMK 200 mg/kg",6.03†
same,Ankle diameter (Mean),"[2]; day 21, MTX 75 μg/kg, AMK 200 mg/kg",6.08†
same,% Inhibition Ankle diameter (AUC),"[2]; MTX 75 μg/kg, AMK 200 mg/kg",65.94%
same,% Inhibition Ankle diameter (AUC),"[2]; MTX 0.5 mg/kg, AP 200 mg/kg",93.59%
same,percent reduction of area under the arthritis severity curve vs vehicle-treated CIA,[3]; [13],62.55% and 62.6%
same,AUC(d9-d21) (Mean ± SD) Arthritis index,[3]; [14],4.87 ± 0.21
same,average arthritis severity score at the end of the study,[3]; [11],1.1±0.17
same,percent reduction of area under the arthritis severity curve vs vehicle-treated CIA,[3]; [11],78.8%
same,AUC(d9-d21) (Mean ± SD) Arthritis index,[3]; [15],5.00 ± 0.48
same,"Arthritis Index, Mean","[3]; Boost, MTX 0.5 mg/kg, AP 200 mg/kg",0.00
same,"Arthritis Index, Mean","[3]; CIA, MTX 75 μg/kg, AMK 200 mg/kg oral, Boost",0.00
same,"Arthritis Index, Mean","[3]; CIA, MTX 75 μg/kg, AMK 200 mg/kg oral, Day 9",0.00
same,"Arthritis Index, Mean","[3]; CIA, MTX 75 μg/kg, AMK 200 mg/kg oral, Day 10",0.00
same,"Arthritis Index, Mean","[3]; CIA, MTX 75 μg/kg, AMK 200 mg/kg oral, Day 11",0.00
same,"Arthritis Index, Mean","[3]; CIA, MTX 75 μg/kg, AMK 200 mg/kg oral, Day 12",0.23*
same,"Arthritis Index, Mean","[3]; CIA, MTX 75 μg/kg, AMK 200 mg/kg oral, Day 13",0.46^¥
same,"Arthritis Index, Mean","[3]; CIA, MTX 75 μg/kg, AMK 200 mg/kg oral, Day 14",0.70^¥
same,"Arthritis Index, Mean","[3]; CIA, MTX 75 μg/kg, AMK 200 mg/kg oral, Day 15",1.10^€
same,"Arthritis Index, Mean","[3]; CIA, MTX 75 μg/kg, AMK 200 mg/kg oral, Day 16",1.50^€
same,"Arthritis Index, Mean","[3]; CIA, MTX 75 μg/kg, AMK 200 mg/kg oral, Priming",0.00
same,"Arthritis Index, Mean","[3]; CIA, MTX 75 μg/kg, AMK 200 mg/kg oral, day 17",1.76^€
same,"Arthritis Index, Mean","[3]; CIA, MTX 75 μg/kg, AMK 200 mg/kg oral, day 19",2.03^€
same,"Arthritis Index, Mean","[3]; CIA, MTX 75 μg/kg, AMK 200 mg/kg oral, day 21 (end of study)",1.78±0.79
same,"Arthritis Index, Mean","[3]; CIA, MTX 75 μg/kg, AMK 200 mg/kg oral, day 21 (end of study), listed as MTX",1.78^€
same,"Arthritis Index, Mean","[3]; Day 10, MTX 0.5 mg/kg, AP 200 mg/kg",0
same,"Arthritis Index, Mean","[3]; Day 11, MTX 0.5 mg/kg, AP 200 mg/kg",0
same,"Arthritis Index, Mean","[3]; Day 12, MTX 0.5 mg/kg, AP 200 mg/kg",0.05**
same,"Arthritis Index, Mean","[3]; Day 13, MTX 0.5 mg/kg, AP 200 mg/kg",0**
same,"Arthritis Index, Mean","[3]; Day 14, MTX 0.5 mg/kg, AP 200 mg/kg",0**
same,"Arthritis Index, Mean","[3]; Day 15, MTX 0.5 mg/kg, AP 200 mg/kg",0.35**
same,"Arthritis Index, Mean","[3]; Day 16, MTX 0.5 mg/kg, AP 200 mg/kg",0.875**
same,"Arthritis Index, Mean","[3]; Day 17, MTX 0.5 mg/kg, AP 200 mg/kg",1**
same,"Arthritis Index, Mean","[3]; Day 19, MTX 0.5 mg/kg, AP 200 mg/kg",1.075**
same,"Arthritis Index, Mean","[3]; Day 20, MTX 0.5 mg/kg, AP 200 mg/kg",1.1**
same,"Arthritis Index, Mean","[3]; Priming, MTX 0.5 mg/kg, AP 200 mg/kg",0.00
same,% Inhibition Arthritis index (AUC),"[3]; MTX 75 μg/kg, AMK 200 mg/kg",62.55%
same,% Inhibition Arthritis index (AUC),"[3]; MTX 0.5 mg/kg, AP 200 mg/kg",78.78%
same,inhibition of urine CTX-II (cartilage degradation) vs vehicle-treated CIA,[4]; [10],26.4%
same,CTX-II,"[4]; urine, CIA rats, MTX 75 μg/mL (printed), AMK 200 mg/kg",2500.8 ± 355.9 ng/g creatinine
same,serum IL-1β inhibition compared to diseased control,[5],71.5%
same,serum MMP-13 inhibition compared to vehicle-treated CIA rats,[6]; [10],78.6%
same,MMP-13,[6]; [16],9.67 ± 1.80 pg/mL
same,MMP-13,[6]; [12],86.57 ± 45.31 pg/mL
same,"Bone Erosion, percent inhibition against vehicle treated disease model",[7]; [16],(66.3%)
same,"Cartilage destruction, percent inhibition against vehicle treated disease model",[7]; [16],(32.6%)
same,"GAG Loss, percent inhibition against vehicle treated disease model",[7]; [16],(50.8%)
same,"Inflammation, percent inhibition against vehicle treated disease model",[7]; [16],(36.0%)
same,"Bone Erosion, percent inhibition against vehicle treated disease model",[7]; [17],(100%)
same,"Cartilage destruction, percent inhibition against vehicle treated disease model",[7]; [17],(98.3%)
same,"GAG Loss, percent inhibition against vehicle treated disease model",[7]; [17],(94.5%)
same,"Inflammation, percent inhibition against vehicle treated disease model",[7]; [17],(100%)
same,Bone Erosion (Mean ± SE),[7]; [18],1.13 ± 0.46
same,Cartilage destruction (Mean ± SE),[7]; [18],2.90 ± 0.63
same,GAG Loss (Mean ± SE),[7]; [18],2.04 ± 0.62
same,Inflammation (Mean ± SE),[7]; [18],3.25 ± 1.02
same,Bone Erosion (Mean ± SE),[7]; [19],0.00 ± 0.00
same,Cartilage destruction (Mean ± SE),[7]; [19],0.13 ± 0.05
same,GAG Loss (Mean ± SD),[7]; [19],0.21 ± 0.17
same,Inflammation (Mean ± SE),[7]; [19],0.00 ± 0.00
same,increase in synovial PIIANP vs vehicle-treated CIA,[8]; [10],69.8%
same,increase in serum PIIANP vs CIA + vehicle,[8]; [11],47%
same,PIIANP,"[8]; serum, AP study, MTX (0.5 mg/mL), AP (200 mg/kg) oral 3 weeks",6.53 ± 1.4 ng/mL
same,PIIANP,"[8]; synovial fluid, CIA rats, MTX 75 μg/mL (printed), AMK 200 mg/kg",0.43 ± 0.16 ng/mg
same,"Z score, Imbalance (catabolic − anabolic), Mean ± SE","[9]; (CTX-II)-(PIIANP), Methotrexate 0.5 mg/kg (printed), AMK 200 mg/kg",1.30 ± 0.33
same,"Z score, Regeneration, Mean ± SE","[9]; from PIIANP, SDs from mean of normal control rats, Methotrexate 0.5 mg/kg (printed), AMK 200 mg/kg",−0.90 ± 0.16
same,improvement in driving OA progression to normalcy relative to vehicle treated CIA rats,[9]; from imbalance Z score,56.4%
same,"Z score, Degradation, Mean ± SE","[9]; from uCTX-II, SDs from mean of normal control rats, Methotrexate 0.5 mg/kg (printed), AMK 200 mg/kg",0.39 ± 0.34

# — US20220000964A1, “Compositions and Methods for Regulating Homeostasis of Chondrocytes, Extracellular Matrix, Articular Cartilage, and Phenotype of Arthritis” (Unigen, Inc., priority 2020, published 2022)
